The series can be described thus: Pharmacokinetics in rat plasma after oral administration of SF-CS and SP-CS extracts (HPLC-MS/MS). Conditions: for Tmax / AUC(0-inf) / Cmax / AUC(0-t) / MRT last: male, Sprague-Dawley; for Tmax / AUC(0-inf) / Cmax / AUC(0-t) / MRT last / AUC(0–24h) / T1/2ka / T1/2α / Shape of plasma concentration-time profile: rat plasma; for AUC(0-t): read-out: AUC0–24h; for MRT last: read-out: MRT0–24h; for Shape of plasma concentration-time profile: oral SF-CS and SP-CS extracts. The series is classed as in vivo, Male Sprague-Dawley rats. As to the method: All components were measured on an Agilent 1200 HPLC system (Agilent Corporation, Santa Clara, CA, USA) and API 3200 triple quadrupole mass spectrometer (Concord, ON, Canada) in negative ion mode. Acetonitrile (A) and 0.1% formic acid-water (B) were used to separate the analytes on an Agilent Eclipse plus C18 column (4.6 mm × 100 mm, 1.8 μm) with a flow rate of 0.5 mL·min^−1. […] The equilibration time (10 min) of the sequence was added before the next injection. The column temperature was 30 °C. The optimized main parameters, namely curtain gas, collision gas, ion Spray voltage, and temperature, were set at 30 psi, 8 psi, −4000 V, and 600 °C, respectively.
The plasma sample (100 μL), IS (10 μL) and formic acid (10 μL) were mixed and vortexed for 1 min. Then, 1 mL of ethyl acetate was spiked into the mixed solution and centrifuged for 10 min at 14,000 rpm. The supernatant was transferred and evaporated with nitrogen gas. These residues were re-dissolved with 100 μL methanol. The final solutions were vortexed for 2 min and centrifuged for 10 min. The supernatant was injected into the HPLC-MS/MS and analyzed.
The pharmacokinetic study was conducted in accordance with the Guidelines for the Care and Use of Laboratory Animals by USA National Institutes of Health and approved by the Animal Ethics Committee of Tianjin University of Traditional Chinese Medicine (the permit number: TCM-LAEC2019023, Tianjin, China). Male Sprague-Dawley rats (200–240 g) were fed in the animal laboratory of Tianjin University of Traditional Chinese Medicine under the standard conditions. These rats were fed and given water for 1 week before experimentation. […] In order to investigate the influence of processing on the metabolic process of active ingredients in vivo, the same amount of raw CS was processed and administrated. Depending on the clinical dosage that was applied to the human body, the dosage of SF-CS extracts was 1.9 g kg^−1 (an equivalent dosage of 12.75 g kg^−1 raw CS) for oral administration, while extraction of SP-CS was 2.2 g kg^−1 (an equivalent dosage of 12.50 g kg^−1 raw CS). In order to investigate the influence of salt on the metabolic process of active ingredients in vivo, the dosage of SF-CS extracts was 1.9 g kg^−1 (an equivalent dosage of 12.75 g kg^−1 raw CS) and SF-CS extracts with salt ( 0.26 g kg^−1 ) were used to perform the pharmacokinetic study. […] The collected plasma was centrifuged for 10 min at 6000 rpm and stored at −20 °C before analysis.
All of the pharmacokinetic parameters were estimated with the DAS1.0 system (Medical College of Wannan, China). The maximum concentration of oral administration of CS (Cmax) and the time to reach Cmax (Tmax) were achieved from the concentration–time profile. All values were shown as mean ± standard deviation. Independent t-test was used to compare the pharmacokinetic parameters of the two processed CS.

[1] abbreviates: oral SF-CS extract (A) 1.9 g kg^-1, n = 10.
The mark [2] stands for this setting: oral SF-CS extract (A) 1.9 g kg^-1, n = 10, mean ± SD.
The mark [3] stands for this setting: oral SP-CS extract (B) 2.2 g kg^-1, n = 10.
Where [4] appears, read: oral SP-CS extract (B) 2.2 g kg^-1, n = 10, mean ± SD.

Where two headings read alike, the source gives them in different places.

The term Tmax denotes the time from dosing to the highest level. As a reminder, the AUC(0-inf) is the area under the concentration-time curve extrapolated to infinity. A high value points to high exposure. For orientation: Cmax means the peak of the concentration-time curve. On to `O=c1c(O[C@@H]2O[C@H](CO)[C@@H](O)[C@H](O)[C@H]2O)c(-c2ccc(O)cc2)oc2cc(O)cc(O)c12` [Astragalin, astragalin], for which the Tmax under setting [1] stood at 0.99 h. Moreover, under setting [2], the AUC(0-inf) came to 11.2 ± 10.8 ng·h/mL, the Cmax is 0.65 ± 0.39 ng/mL, the AUC(0-t) stood at 1.27 ± 0.76 ng·h/mL and the MRT last was found to be 2.3 ± 0.98 h. Under setting [2], this compound displayed a T1/2ka of 2.27 ± 5.13 h and a T1/2α of 24.6 ± 33.2 h. In addition, the Tmax under setting [3] turned out to be 0.17 h. Moreover, under setting [4], the AUC(0-inf) turned out to be 2.33 ± 0.72 ng·h/mL, the Cmax was 1.43 ± 0.21 ng/mL, the AUC(0-t) came to 1.31 ± 0.27 ng·h/mL and the MRT last came to 2.13 ± 0.2 h. Further, under setting [4], the T1/2ka is 0.04 ± 0.00 h and the T1/2α turned out to be 0.10 ± 0.04 h. The compound also registered an AUC(0–24h) (oral SF-CS extract) of 1.27 ± 0.76 ng·h/mL. In addition, under “oral SP-CS extract”, the AUC(0–24h) came out at 1.31 ± 0.27 ng·h/mL.
Consider `O=C(/C=C/c1ccc(O)c(O)c1)O[C@@H]1C[C@](O)(C(=O)O)C[C@@H](O)[C@H]1O` [Chlorogenic acid, chlorogenic acid], for which the “Shape of plasma concentration-time profile” value is “double-peak phenomenon”. Under setting [1], the Tmax was found to be 3.84 h. Moreover, under setting [2], the AUC(0-inf) was 1670 ± 931 ng·h/mL, the Cmax came to 257 ± 53 ng/mL, the AUC(0-t) was found to be 1660 ± 931 ng·h/mL and the MRT last came out at 4.81 ± 0.35 h. For the same compound, under setting [2], the T1/2ka is listed as 0.63 ± 0.87 h and the T1/2α is reported as 6.53 ± 5.20 h. Besides, the Tmax under setting [3] amounted to 0.28 h. Also, under setting [4], the AUC(0-inf) was 438 ± 289 ng·h/mL, the peak level (Cmax) was 175 ± 168 ng/mL, the AUC(0-t) amounted to 417 ± 281 ng·h/mL and the MRT last came out at 5.06 ± 1.1 h. Under setting [4], this compound yielded a T1/2ka of 0.02 ± 0.01 h and a T1/2α of 0.84 ± 0.42 h.
Turning to `O=c1c(O[C@@H]2O[C@H](CO)[C@H](O)[C@H](O)[C@H]2O)c(-c2ccc(O)c(O)c2)oc2cc(O)cc(O)c12` [Hyperin, hyperin], under setting [1], the Tmax worked out at 0.74 h. Besides, under setting [2], the AUC(0-inf) is 331 ± 80 ng·h/mL, the concentration peaked (Cmax) at 21.3 ± 6.98 ng/mL, the AUC(0-t) was found to be 172 ± 38 ng·h/mL and the MRT last was found to be 9.19 ± 1.5 h. Further, under setting [2], the T1/2ka worked out at 2.15 ± 4.21 h and the T1/2α is recorded as 11.7 ± 6.73 h. Further, under setting [3], the Tmax amounted to 0.11 h. For the same compound, under setting [4], the AUC(0-inf) was found to be 185 ± 153 ng·h/mL, the Cmax is 36.6 ± 21.9 ng/mL, the AUC(0-t) was found to be 63 ± 27.8 ng·h/mL and the MRT last turned out to be 8.66 ± 2.37 h. Further, under setting [4], the T1/2ka is 0.01 ± 0.01 h and the T1/2α came out at 0.46 ± 0.30 h.
Turning to `O=c1c(O[C@@H]2O[C@H](CO)[C@@H](O)[C@H](O)[C@H]2O)c(-c2ccc(O)c(O)c2)oc2cc(O)cc(O)c12` [Isoquercitrin, isoquercitrin], the “Detection in rat plasma” value (after oral administration of the two processed products of CS, LLOQ 2 ng·mL^−1) was “could not be tested”.
For the compound `O=C(/C=C/c1ccc(O)c(O)c1)O[C@@H]1C[C@@](O)(C(=O)O)C[C@@H](O)[C@@H]1O` [Neochlorogenic acid, neochlorogenic acid], the “Shape of plasma concentration-time profile” value was “double-peak phenomenon”. Further, under setting [1], the Tmax came to 3.75 h. For the same compound, under setting [2], the area under the curve AUC(0-inf) was 567 ± 376 ng·h/mL, the Cmax turned out to be 88.6 ± 39.6 ng/mL, the AUC(0-t) is 548 ± 384 ng·h/mL and the MRT last was 5.57 ± 1.74 h. In addition, under setting [2], the T1/2ka stood at 1.12 ± 1.66 h and the T1/2α was 7.72 ± 7.50 h. In addition, under setting [3], the Tmax was 0.26 h. Moreover, under setting [4], the AUC(0-inf) came out at 178 ± 22 ng·h/mL, the Cmax was determined as 31.8 ± 17.3 ng/mL, the AUC(0-t) worked out at 129 ± 38 ng·h/mL and the MRT last was 8.18 ± 1.66 h. In addition, under setting [4], the T1/2ka came to 0.02 ± 0.02 h and the T1/2α is on record as 3.35 ± 4.31 h.
With `O=C(O)/C=C/c1ccc(O)cc1` [P-coumaric acid, p-coumaric acid], the Tmax under setting [1] came out at 0.54 h. Under setting [2], the AUC(0-inf) amounted to 3290 ± 591 ng·h/mL, the Cmax turned out to be 1210 ± 310 ng/mL, the AUC(0-t) was determined as 3200 ± 635 ng·h/mL and the MRT last came to 4.24 ± 1.45 h. Under setting [2], this compound returned a T1/2ka of 0.15 ± 0.12 h and a T1/2α of 1.32 ± 0.86 h. Moreover, the time of peak concentration (Tmax) under setting [3] turned out to be 0.33 h. Further, under setting [4], the AUC(0-inf) turned out to be 2800 ± 951 ng·h/mL, the Cmax worked out at 805 ± 307 ng/mL, the AUC(0-t) turned out to be 2570 ± 792 ng·h/mL and the MRT last was 5.68 ± 1.69 h. For the same compound, under setting [4], the T1/2ka worked out at 0.05 ± 0.04 h and the T1/2α is 1.40 ± 0.95 h. Moreover, under “oral SF-CS extract”, the AUC(0–24h) came to 3200 ± 635 ng·h/mL. In addition, under “oral SP-CS extract”, the AUC(0–24h) is 2570 ± 792 ng·h/mL.

For the origin of these results see article PMC6651454, “An Established HPLC-MS/MS Method for Evaluation of the Influence of Salt Processing on Pharmacokinetics of Six Compounds in Cuscutae Semen” (Molecules, 2019).
